Measurements: publication PMC7753147, “High-throughput determination of protein affinities using unmodified peptide libraries in nanomolar scale” (iScience, 2020)

What was measured:
gephE = experiment: µSPOT peptide microarray binding assay with recombinant gephE
native geph = experiment: µSPOT peptide microarray binding assay with native geph from mouse brain lysate
FL-geph = experiment: µSPOT peptide microarray binding assay with full-length geph
[1] = µSPOT peptide microarray, GlyRβ full positional scan, recombinant gephE, intensity normalised to wild-type sequence DLRSNDFSIVGSLPR (=1)
[2] = µSPOT peptide microarray, GlyRβ full positional scan, native geph from mouse brain lysate, intensity normalised to wild-type sequence DLRSNDFSIVGSLPR (=1)
[3] = µSPOT peptide microarray, GlyRβ full positional scan, intensity normalised to wild-type sequence DLRSNDFSIVGSLPR (=1)
[4] = µSPOT full positional scan of GlyRβ 15-mer DLRSNDFSIVGSLPR, intensity normalised to wild-type sequence (= 1)
[5] = µSPOT full positional scan of GlyRβ 15-mer DLRSNDFSIVGSLPR, native geph, intensity normalised to wild-type sequence (= 1)

DFRSNDFSIVGSLPR [GlyRβ_Full_Positional_Scan_027]
gephE Binding Intensity [norm.] (gephE; [1]): 0.98 norm. | Native geph Binding Intensity [norm.] (native geph; [2]): 0.91 norm. | Fl-geph Binding Intensity [norm.] (FL-geph; [3]): 0.99 norm.

DLRSNDFSIVGRLPR [GlyRβ_Full_Positional_Scan_232]
gephE Binding Intensity [norm.] (gephE; [4]): 0.87 norm. | Native geph Binding Intensity [norm.] (native geph; [5]): 0.8 norm. | Fl-geph Binding Intensity [norm.] (FL-geph; [4]): 1.06 norm.

DLRSNDFSIVGSLPY [GlyRβ_Full_Positional_Scan_289]
gephE Binding Intensity [norm.] (gephE; [4]): 0.87 norm. | Native geph Binding Intensity [norm.] (native geph; [5]): 1.09 norm. | Fl-geph Binding Intensity [norm.] (FL-geph; [4]): 0.74 norm.

DLPSNDFSIVGSLPR [GlyRβ_Full_Positional_Scan_045]
gephE Binding Intensity [norm.] (gephE; [1]): 0.93 norm. | Native geph Binding Intensity [norm.] (native geph; [2]): 1.5 norm. | Fl-geph Binding Intensity [norm.] (FL-geph; [3]): 1.47 norm.

HLRSNDFSIVGSLPR [GlyRβ_Full_Positional_Scan_013]
gephE Binding Intensity [norm.] (gephE; [1]): 1.1 norm. | Native geph Binding Intensity [norm.] (native geph; [2]): 0.83 norm. | Fl-geph Binding Intensity [norm.] (FL-geph; [3]): 1 norm.

DLRSNDFSIVGFLPR [GlyRβ_Full_Positional_Scan_227]
gephE Binding Intensity [norm.] (gephE; [4]): 0.64 norm. | Native geph Binding Intensity [norm.] (native geph; [5]): 0.37 norm. | Fl-geph Binding Intensity [norm.] (FL-geph; [4]): 0.88 norm.

DLRSNDFSIVGPLPR [GlyRβ_Full_Positional_Scan_225]
gephE Binding Intensity [norm.] (gephE; [4]): 0.51 norm. | Native geph Binding Intensity [norm.] (native geph; [5]): 0.25 norm. | Fl-geph Binding Intensity [norm.] (FL-geph; [4]): 0.7 norm.

TLRSNDFSIVGSLPR [GlyRβ_Full_Positional_Scan_016]
gephE Binding Intensity [norm.] (gephE; [1]): 1.16 norm. | Native geph Binding Intensity [norm.] (native geph; [2]): 0.79 norm. | Fl-geph Binding Intensity [norm.] (FL-geph; [3]): 0.85 norm.

DLRSNDFHIVGSLPR [GlyRβ_Full_Positional_Scan_153, GlyR β 414-428 variant S421H]
gephE Binding Intensity [norm.] (gephE; [1]): 0.8 norm. | Native geph Binding Intensity [norm.] (native geph; [2]): 0.48 norm. | Fl-geph Binding Intensity [norm.] (FL-geph; [3]): 0.95 norm.

GLRSNDFSIVGSLPR [GlyRβ_Full_Positional_Scan_002]
gephE Binding Intensity [norm.] (gephE; [1]): 1.01 norm. | Native geph Binding Intensity [norm.] (native geph; [2]): 0.75 norm. | Fl-geph Binding Intensity [norm.] (FL-geph; [3]): 1.03 norm.

DLRSNVFSIVGSLPR [GlyRβ_Full_Positional_Scan_106]
gephE Binding Intensity [norm.] (gephE; [1]): 0.81 norm. | Native geph Binding Intensity [norm.] (native geph; [2]): 0.58 norm. | Fl-geph Binding Intensity [norm.] (FL-geph; [3]): 0.95 norm.

DLRSNDFSIDGSLPR [GlyRβ_Full_Positional_Scan_190, GlyR β 414-428 variant V423D]
gephE Binding Intensity [norm.] (gephE; [1]): 0.46 norm. | Native geph Binding Intensity [norm.] (native geph; [2]): 0.28 norm. | Fl-geph Binding Intensity [norm.] (FL-geph; [3]): 0.35 norm.

DLRSNDFDIVGSLPR [GlyRβ_Full_Positional_Scan_150, GlyR β 414-428 variant S421D]
gephE Binding Intensity [norm.] (gephE; [1]): 0.53 norm. | Native geph Binding Intensity [norm.] (native geph; [2]): 0.29 norm. | Fl-geph Binding Intensity [norm.] (FL-geph; [3]): 0.9 norm.

DERSNDFSIVGSLPR [GlyRβ_Full_Positional_Scan_031]
gephE Binding Intensity [norm.] (gephE; [1]): 0.98 norm. | Native geph Binding Intensity [norm.] (native geph; [2]): 0.92 norm. | Fl-geph Binding Intensity [norm.] (FL-geph; [3]): 1.01 norm.

DLRSNYFSIVGSLPR [GlyRβ_Full_Positional_Scan_109]
gephE Binding Intensity [norm.] (gephE; [1]): 0.82 norm. | Native geph Binding Intensity [norm.] (native geph; [2]): 0.38 norm. | Fl-geph Binding Intensity [norm.] (FL-geph; [3]): 0.7 norm.

DLRSNDFSIVGSKPR [GlyRβ_Full_Positional_Scan_254]
gephE Binding Intensity [norm.] (gephE; [4]): 0.59 norm. | Native geph Binding Intensity [norm.] (native geph; [5]): 0.24 norm. | Fl-geph Binding Intensity [norm.] (FL-geph; [4]): 0.68 norm.

DLRSNDFSIVGSLKR [GlyRβ_Full_Positional_Scan_274]
gephE Binding Intensity [norm.] (gephE; [4]): 0.58 norm. | Native geph Binding Intensity [norm.] (native geph; [5]): 0.21 norm. | Fl-geph Binding Intensity [norm.] (FL-geph; [4]): 1.01 norm.

DLRSNFFSIVGSLPR [GlyRβ_Full_Positional_Scan_107]
gephE Binding Intensity [norm.] (gephE; [1]): 0.74 norm. | Native geph Binding Intensity [norm.] (native geph; [2]): 0.34 norm. | Fl-geph Binding Intensity [norm.] (FL-geph; [3]): 0.78 norm.

DLRSNDFSIVGSLPI [GlyRβ_Full_Positional_Scan_283]
gephE Binding Intensity [norm.] (gephE; [4]): 0.98 norm. | Native geph Binding Intensity [norm.] (native geph; [5]): 1.01 norm. | Fl-geph Binding Intensity [norm.] (FL-geph; [4]): 1.05 norm.

DLRSNDFSIVGSLFR [GlyRβ_Full_Positional_Scan_267]
gephE Binding Intensity [norm.] (gephE; [4]): 0.71 norm. | Native geph Binding Intensity [norm.] (native geph; [5]): 0.28 norm. | Fl-geph Binding Intensity [norm.] (FL-geph; [4]): 0.78 norm.

DLRSNQFSIVGSLPR [GlyRβ_Full_Positional_Scan_120]
gephE Binding Intensity [norm.] (gephE; [1]): 0.95 norm. | Native geph Binding Intensity [norm.] (native geph; [2]): 0.53 norm. | Fl-geph Binding Intensity [norm.] (FL-geph; [3]): 0.78 norm.

DLRSNDFSIVGLLPR [GlyRβ_Full_Positional_Scan_224]
gephE Binding Intensity [norm.] (gephE; [4]): 0.62 norm. | Native geph Binding Intensity [norm.] (native geph; [5]): 0.44 norm. | Fl-geph Binding Intensity [norm.] (FL-geph; [4]): 1.01 norm.

DLRSNDFSIVGSLPQ [GlyRβ_Full_Positional_Scan_300]
gephE Binding Intensity [norm.] (gephE; [4]): 1.02 norm. | Native geph Binding Intensity [norm.] (native geph; [5]): 1.41 norm. | Fl-geph Binding Intensity [norm.] (FL-geph; [4]): 1.33 norm.

DLRSNDFSIVGSYPR [GlyRβ_Full_Positional_Scan_249]
gephE Binding Intensity [norm.] (gephE; [4]): 0.99 norm. | Native geph Binding Intensity [norm.] (native geph; [5]): 1.23 norm. | Fl-geph Binding Intensity [norm.] (FL-geph; [4]): 0.87 norm.

DLRSNDFSIVCSLPR [GlyRβ_Full_Positional_Scan_217, GlyR β 414-428 variant G424C]
gephE Binding Intensity [norm.] (gephE; [4]): 0.43 norm. | Native geph Binding Intensity [norm.] (native geph; [5]): 0.23 norm. | Fl-geph Binding Intensity [norm.] (FL-geph; [4]): 0.45 norm.

PLRSNDFSIVGSLPR [GlyRβ_Full_Positional_Scan_005]
gephE Binding Intensity [norm.] (gephE; [1]): 1.1 norm. | Native geph Binding Intensity [norm.] (native geph; [2]): 0.72 norm. | Fl-geph Binding Intensity [norm.] (FL-geph; [3]): 1.16 norm.

DLRSNDFYIVGSLPR [GlyRβ_Full_Positional_Scan_149, GlyR β 414-428 variant S421Y]
gephE Binding Intensity [norm.] (gephE; [1]): 0.7 norm. | Native geph Binding Intensity [norm.] (native geph; [2]): 0.27 norm. | Fl-geph Binding Intensity [norm.] (FL-geph; [3]): 0.85 norm.

DLRSNDFSIMGSLPR [GlyRβ_Full_Positional_Scan_198, GlyR β 414-428 variant V423M]
gephE Binding Intensity [norm.] (gephE; [1]): 0.44 norm. | Native geph Binding Intensity [norm.] (native geph; [2]): 0.38 norm. | Fl-geph Binding Intensity [norm.] (FL-geph; [3]): 0.86 norm.
